From US4673692A, “Diphenylmethylimine derivatives, their compositions and pharmaceutical uses” (Teikoku Hormone Mfg. Co., Ltd., priority 1984, dated 1987)

How the values were obtained:
stomach = assay: Ulcerogenic activity; format: in vivo, male Wistar rats; details: 300 mg/kg, p.o.; 4 hours after dosing; fasted rats
Experimental: The test compound was orally administered by the same way as in the test on anti-inflammatory activity to male Wistar rats weighing 120 to 150 g which had been fasted for 24 hours. Four hours later, they were killed with ether.

5-lipoxygenase = target: T1, 5-lipoxygenase (Rattus norvegicus, UniProt P12527); assay: 5-lipoxygenase inhibiting action (formation of 5-HETE and 5,12-diHETE) in white blood cells from rat pleural exudate; format: cell-based; details: 14C arachidonic acid, A23187, 2 minutes, read-out: concentration inhibiting 50% of the formation of 5-HETE
T1 construct: endogenous in cells; host or cells: white blood cells from the pleural exudate of rats with carrageenan-induced pleurisy
T1 sequence (P12527 1-673): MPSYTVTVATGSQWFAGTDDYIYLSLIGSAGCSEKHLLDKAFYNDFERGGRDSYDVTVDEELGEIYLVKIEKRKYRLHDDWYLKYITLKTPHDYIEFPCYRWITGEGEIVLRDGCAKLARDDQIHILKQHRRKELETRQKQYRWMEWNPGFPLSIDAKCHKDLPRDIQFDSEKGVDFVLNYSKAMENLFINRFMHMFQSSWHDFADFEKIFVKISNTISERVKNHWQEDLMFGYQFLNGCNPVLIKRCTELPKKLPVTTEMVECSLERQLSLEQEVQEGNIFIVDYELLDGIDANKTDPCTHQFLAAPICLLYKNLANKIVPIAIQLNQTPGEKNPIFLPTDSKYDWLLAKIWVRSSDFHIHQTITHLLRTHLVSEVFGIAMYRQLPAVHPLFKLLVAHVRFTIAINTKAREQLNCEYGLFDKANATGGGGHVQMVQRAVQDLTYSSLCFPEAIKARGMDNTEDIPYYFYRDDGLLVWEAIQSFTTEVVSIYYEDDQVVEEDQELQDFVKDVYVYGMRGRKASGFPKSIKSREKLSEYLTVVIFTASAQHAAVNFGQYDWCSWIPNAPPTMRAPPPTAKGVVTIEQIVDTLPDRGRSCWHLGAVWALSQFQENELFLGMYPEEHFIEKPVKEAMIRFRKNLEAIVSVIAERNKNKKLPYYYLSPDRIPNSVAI
Experimental: (§1) The actions of the compounds of this invention to inhibit 5-lipoxygenase and cyclooxygenase activities were measured in accordance with the method of Siegel et al. [Prostaglandins, Vol. 21, page 123 (1981)].
(§2) The exudate was extracted from the pleural cavity of a rat with carrageenan-induced pleurisy. White blood cells from the exudate were suspended in 50 mM Tris-HCl buffer (pH 7.4) containing 100 mM sodium chloride and 1 mM calcium chloride. To a fixed amount of the white blood cell suspension were added a test compound, ^14 C arachidonic acid and a calcium ionophore (A23187), and the mixture was incubated for 2 minutes. […] The radioactivity of each of the fractions was measured by a liquid scintillation counter, and the percentage of the radioactivity of each fraction based on the total radioactivity was calculated (the ratio of formation). The inhibition ratio of the test compound against the synthesis ability of each fraction was determined by using the ratio of formation as an index.
(§3) The lipoxygenase activity was determined by using the formation of 5S-hydroxy-6,8,11,14-eicosatetraenoic acid (5-HETE) and 5S,12R-dihydroxy-6,8,10,14-eicosatetraenoic acid (5,12-diHETE) as indices. The cyclooxygenase activity was determined by using the formation of 12-hydroxyheptadecatrienoic acid (HHT) as an index. […]

cyclooxygenase = assay: Cyclooxygenase inhibiting action (formation of HHT) in white blood cells from rat pleural exudate; format: cell-based; details: 14C arachidonic acid, A23187, 2 minutes, read-out: concentration inhibiting 50% of the formation of HHT
Experimental: as §1, §2, §3

[1] = tested on: adjuvant-induced arthritis; assay: Preventive effect on adjuvant-induced arthritis; format: in vivo, Sprague-Dawley strain female rats
Experimental: Sprague-Dawley strain female rats, 6 weeks old, were used. Killed and dried M. butyricum (Difco) were suspended (6 mg/ml) in light liquid paraffin, and the suspension was sterilized under pressure to form Freund's complete adjuvant. 0.1 ml of the Freund's complete adjuvant was injected subcutaneously into the right hind paws of the animals to induce arthritis. After the injection of the Freund's complete adjuvant, the test compound was orally administered once a day for 21 consecutive days including the day of injection. The volumes of the left and right hind paws were measured by using the device devised by Fujihira [Eiichi Fujihira: Oyo Yakuri 5, 169-182 (1971)], and the increases in volume from before the injection of the adjuvant was measured and used as an index of swelling. Changes in swelling after the stopping of drug administration were also examined. The animals were used in groups each consisting of 10 members.

granuloma formation = assay: Inhibitory effect on granuloma formation (filter paper implantation); format: in vivo, Wistar strain male rats; details: Rattus norvegicus, po, 168 h; once a day for 7 days; p<0.001, n=7-8; read-out: dose significantly decreasing the dry weight of granuloma
Experimental: Wistar strain male rats were used. Under anesthesia with hexobarbital-Na (100 mg/kg, i.p.), the hair of the back of each rat was removed. Filter paper pieces prepared in tablet form (Toyo Filter Paper, No. 85K, 9 mm diameter) sterilized under pressure were implanted subcutaneously on the left and right sides of the back, and oily procaine penicillin G (a product of Banyu Pharmaceutical Co., Ltd.; 300,000 units/ml) was intramuscularly injected in an amount of 0.25 ml.
After the implantation of the filter paper pieces, the test compound was orally administered once a day for 7 consecutive days including the day of implantation. On the day next to the day of the final administration, the filter paper pieces and granuloma formed around them were excised, and dried at about 60° C. for 24 hours. Their weight was measured. The weight of the filter paper pieces was subtracted, and the balance was defined as the dry amount of glanuloma.

carrageenan paw edema = assay: Anti-inflammatory activity: carrageenan-induced hind paw edema; format: in vivo, Male Wistar rats; details: 10 mg/kg, p.o.; carrageenan 1 h after dosing, volume measured 3 h later; 5 rats per group
Experimental: Male Wistar rats weighing 120 to 150 g which had been fasted for 24 hours were used in groups each consisting of 5 rats. In each group, the volumes of the right hind paw were measured by a volume differential meter (made by Ugo Basile Company), and each of the test compounds was suspended in an aqueous solution of 0.5% of carboxymethyl cellulose and 2.0% of Tween 80, and administered orally through a tube. After one hour from the administration, […] suspension of carrageenan in distilled water was subcutaneously injected into the plantar tissues of the right hind paw. Three hours later, the volumes of the right hind paw were again measured. The increase in volume of the right hind paw of each rat in each group (the volume of edema) was measured. The percent edema inhibition was calculated in accordance with the following equation, and the results are shown in Tale 1.

[2] = Pharmacological actions of previously disclosed compound

With `CC(C)(C)c1cc(C(=NO)c2ccccc2)cc(C(C)(C)C)c1O` [A, 3,5-di-t-butyl-4-hydroxybenzophenone oxime] the gastric trouble (stomach) was “no gastric trouble”, the IC50 (5-lipoxygenase) was 6.2 µM and the IC50 (cyclooxygenase) was 1.25 µM. The minimal effective dose ([1]; Rattus norvegicus, po, 504 h, once a day for 21 days, p<0.05, n=10, read-out: dose significantly inhibiting the development of adjuvant-induced arthritis) was at least 3 mg/kg, the “rebound phenomenon in swelling after the stopping of drug administration” value ([1]; after 21 days of oral administration) was “No rebound phenomenon was noted” and the minimal effective dose (granuloma formation) was at least 3 mg/kg. The “Percent inhibition (edema)” value (carrageenan paw edema) was 26.7%.

In the case of `CON=C(c1ccccc1)c1cc(C(C)(C)C)c(O)c(C(C)(C)C)c1`, the “pharmacological actions such as anti-inflammatory, analgesic or anti-rheumatic activity” value [2] is reported as “does not substantially show pharmacological actions”.

For `CCC(=O)ON=C(c1ccccc1)c1cc(C(C)(C)C)c(O)c(C(C)(C)C)c1` [C, 3,5-di-t-butyl-4-hydroxybenzophenone O-propionyloxime], the “Percent inhibition (edema)” value (carrageenan paw edema) was 23.6%.

With `CC(C)(C)c1cc(C(=NN)c2ccccc2)cc(C(C)(C)C)c1O` [D, 3,5-di-t-butyl-4-hydroxybenzophenone hydrazone] the “Percent inhibition (edema)” value (carrageenan paw edema) was 21.0%.

For `CC(=O)ON=C(c1ccccc1)c1cc(C(C)(C)C)c(O)c(C(C)(C)C)c1` [B, 3,5-di-t-butyl-4-hydroxybenzophenone O-acetyloxime], the “Percent inhibition (edema)” value (carrageenan paw edema) was 22.7%.
